Patent US10342796B2, “Acrylanilide derivative, preparation method, and applications thereof in pharmacy” (Ancureall Pharmaceutical (Shanghai) Co., Ltd., priority 2015, dated 2019)
Read-outs that look alike come from different tables or passages of the source.

Key:
AU565 (Her2 amp) = experiment: Growth inhibition GI50 in vitro (CCK8/MTT, 72 h); format: cell-based, human; details: Homo sapiens, AU565; HER2 positive cell line; range of GI50; read-out: GI50 AU-565
[1] = test system: H1299 (EGFR wt, Nras Q61K); experiment: Growth inhibition GI50 in vitro (CCK8/MTT, 72 h); format: cell-based, human; details: Homo sapiens, NCI-H1299; EGFR wild type cell line; range of GI50; read-out: GI50 H1299
[2] = test system: H460 (EGFR wt, Kras G61H); experiment: Growth inhibition GI50 in vitro (CCK8/MTT, 72 h); format: cell-based, human; details: Homo sapiens, NCI-H460; EGFR wild type cell line; range of GI50; read-out: GI50 H460
[3] = test system: A431 (EGFR WT, amplification and high expression); experiment: Growth inhibition GI50 in vitro (CCK8/MTT, 72 h); format: cell-based, human; details: Homo sapiens, A-431; EGFR wild type cell line; range of GI50; read-out: GI50 A431
A549 (EGFR WT) = experiment: Growth inhibition GI50 in vitro (CCK8/MTT, 72 h); format: cell-based, human; details: Homo sapiens, A549
SK-BR-3 (Her2 amp) = experiment: Growth inhibition GI50 in vitro (CCK8/MTT, 72 h); format: cell-based, human; details: Homo sapiens, SK-BR-3; HER2 positive cell line; range of GI50; read-out: GI50 SK-BR-3
PC-9 tumor cells = experiment: In vivo tumor growth inhibition, xenograft; design: species or system Bab/c nude mice; details: Mus musculus, po, 456 h; 25 mg/kg intragastric once daily, day 19; read-out: TGI (%) PC-9
From the text: (§1) Tumor xenograft models of immunodeficient mice are an effective tool to test the antitumor activity of the compound in vivo. Generally, the effectiveness of human tumor cell xenograft is positively correlated with the clinical treatment of human tumor. Bab/c immunodeficient mouse is one of the most commonly used xenograft animals with human tumor cells. In order to test whether the present compounds can inhibit the in vivo growth of the tumor cells expressing EGFR mutantion or HER2/ErbB2 overexpression, H1975, PC-9 and NCI-N87 cell lines were used in the experiments. When H1975, PC-9 and NCI-N87 cells were in growth logarithmic phase, they were digested with pancreatin. An appropriate amount of 1×RPMI1640 culture medium (serum-free) was added to stop digestion. The cells were collected to a 50 ml centrifuge tube (Corning), and centrifuged at 1700 rm for 3 min. The supernatant was discard, then the cells were suspended with 1×RPMI1640 culture medium and count the number. […] cells/mL was prepared and then placed on ice. 5˜10×10^6 (0.2 ml) cells were inoculated subcutaneously on the right side of the back of 6˜8 week old female Bab/c nude mice (about 20 g in weight). When the tumor average volume growed to 100˜200 mm^3, the mice were randomly divide into groups (3-6 mice per group), and marked by ear pierced tags and weighted. The test compounds and the reference compound (with a purity over 99% and individual impurity not higher than 0.2%) were formulated to emulsion suspension with CM (30% polyethylene glycol 400, 0.5% Tween-80 and 2.5% propylene glycol) respectively. Intragastric administration was continued once daily at a dosage of 25 mg/kg (0.1 ml/10 g mouse). The tumor was measured 3 times per week. When the average volume of the tumor in CM control group was up to 1500 mm^3 or after administration for 30 days, the experiment was ended.
(§2) The volume of tumor (V) was calculated as V=½*a*b^2 (a represents length of tumors, b represents width of tumors). Tumor growth inhibition (TGI) was calculated as: TGI (%)=100−(VT−VT0)/(VC−VC0)*100%; where VT0 and VT are the tumor volumes of the beginning and finish days of dosed groups; and VC0 and VC are the tumor volumes of the beginning and finish days for the control group, respectively.

H1975 tumor cells = experiment: In vivo tumor growth inhibition, xenograft; design: species or system Bab/c nude mice; details: Mus musculus, NCI-H1975, po, 456 h; 25 mg/kg intragastric once daily, day 19; read-out: TGI (%) H1975
From the text: as §1, §2

PC-9 (EGFR dE746-A750) = experiment: Growth inhibition GI50 in vitro (CCK8/MTT, 72 h); format: cell-based, human; details: Homo sapiens
HCC827 (EGFR dE746-A750) = experiment: Growth inhibition GI50 in vitro (CCK8/MTT, 72 h); format: cell-based, human; details: Homo sapiens, HCC827; EGFR mutant cell line; range of GI50; read-out: GI50 HCC827
H1975 (EGFR L858R/T790M) = experiment: Growth inhibition GI50 in vitro (CCK8/MTT, 72 h); format: cell-based, human; details: Homo sapiens, NCI-H1975
[4] = test system: PC-9ER (EGFR delE746-A750/T790M); experiment: Growth inhibition GI50 in vitro (CCK8/MTT, 72 h); format: cell-based, human; details: Homo sapiens, PC-9/ER; EGFR mutant cell line; range of GI50; read-out: GI50 PC9ER
N87 (HER2 Amp) = experiment: Growth inhibition GI50 in vitro (CCK8/MTT, 72 h); format: cell-based, human; details: Homo sapiens
H292 (EGFR WT) = experiment: Growth inhibition GI50 in vitro (CCK8/MTT, 72 h); format: cell-based; details: Homo sapiens, NCI-H292; Table 15; 1000 nM to 0.03 nM serial dilution; read-out: GI50 H292 (EGFR WT)
From the text: EGFR wild type cell lines: human epidermal cancer cell line A431 (EGFR WT, amplification and high expression, from Shanghai Cell Bank of Chinese Academy of Sciences and ATCC), NSCLC cell lines NCI-H460 (EGFR WT, Kras G61H and PI3KCA E545K mutants, ATCC) and NCI-H1299 (EGFR WT, ATCC), melanoma cell line A375 (EGFR WT and BRAF V600E mutant, from Shanghai Cell Bank of Chinese Academy of Sciences, ATCC), human lung cancer cell line NCI-H292 (EGFR WT, from human lung mucoepidermoid carcinoma/lymphatic metastasis, purchased from Shanghai Cell Bank of Chinese Academy of Sciences) were cultured with 1×RPMI1640 complete medium which was supplement with 10% FBS. NSCLC cell line A549 (EGFR WT and Kras G12S mutant, from Shanghai Cell Bank of Chinese Academy of Sciences) was cultured with 1×Ham'S F12K complete medium which was supplement with 10% FBS, 1% double-antibiotics and 2 mM glutamine.
(§3) The suspension cells were collected by centrifugation. The supernatant was discard and the cell pellet was resuspended and counted. Different cell concentrations (5˜10×10^4 cells/mL) were prepared according to the growth cycle of each cell line and then seeded on a 96-well plate (Corning), 100 μL/well. The cells were incubated over night at 37° C., 5% CO2. The compounds were added to the cells on the second day with 2 wells in parallel. The final concentration of organic solvent shall not exceed 1%. The cells were continually incubated for 72 h, and then subjected to MTT assay.
(§4) The present compounds and the reference compounds were dissolved with DMSO (Sigma), respectively. […] The storage concentration of compounds was 10 mM and kept at −20° C. They were diluted by 2 times or 10 times with serial dilution before using.
(§5) Dojindo CCK8 reagent kit was used as MTT assay. […] FC meter was used as microplate reader.
Adherent cell culture medium was discard and immediately replaced with fresh prepared medium which contains 10% CCK8 reagent (100 μL/well). For the suspension cells, CCK8 was directly added to 10% of the final concentration. The cells were continually incubated for 1˜4 h. When the color of control wells turned to dark yellow, the absorption value was measured at OD450 nm. The cell growth rate was calculated according to the following formula: cell growth rate (%)=100*(T−T0)/(C−T0), T=optical density of drug treatment cell well—optical density of blank control well; T0=optical density of cell well before drug treatment—optical density of blank control well; C=optical density of cell well of solvent control group—optical density of blank control well. […] The experiment was independently repeated 1˜3 times, and subject to biological statistical analysis.

[5] = test system: NCI-H1781 (HER2 exon 20 G776VC mutation); experiment: Growth inhibition GI50 in vitro (CCK8/MTT, 72 h); format: cell-based; details: Homo sapiens, NCI-H1781; Table 16; 1000 nM to 0.03 nM serial dilution; read-out: GI50 H1781 (HER2 G776VC)
Method: Human lung adenocarcinoma cell line Calu-3 (ATCC) was cultured with 1×MEM complete medium (10% FBS, 1% double-antibiotics, 1% NEAA (Gibco), 2 mM glutamine and 1 mM of sodium pyruvate). Human breast cancer cell line SK-BR-3 was cultured with McCOY'S5A complete medium (10% FBS). Human colon cancer cell line SNU1040 (HER2 V777M positive) (ATCC) and human bronchoalveolar adenocarcinoma cell line NCI-H1781 (expressing HER2 exon 20 G776VC mutation) (ATCC) were cultured with 1×RPMI1640 complete medium (10% FBS), respectively.
as §3, with “Adherent cells were digested with 0.25% pancreatin-EDTA (Gibco). The suspension” for “The suspension”
as §4, §5
Adherent cell culture medium was discard and immediately replaced with fresh prepared medium which contains 10% CCK8 reagent (100 μL/well). For the suspension cells, CCK8 was directly added to 10% of the final concentration. The cells were continually incubated for 1˜4 h. When the color of control wells turned to dark yellow, the absorption value was measured at OD450 nm. The cell growth rate was calculated according to the following formula: cell growth rate (%)=100*(T−T0)/(C−T0), T=optical density of drug treatment cell well—optical density of blank control well; T0=optical density of cell well before drug treatment—optical density of blank control well; C=optical density of cell well of solvent control group—optical density of blank control well. The concentration value of 50% inhibition of cell growth (GI50) was calculated. The experiment was independently repeated 1˜3 times, and subject to biological statistical analysis.
Furthermore, the present compounds (99, 136, 205, 211, 212, 213, 216, 229, 230, 231, 232, 233 and 236) were selected to carry out growth inhibition test for HER2/ERBB2 gene amplified or high expressed or mutant tumor cells. Afatinib and AZD9291 were used for references as second- and third-generation inhibitors of EGFR.
Each compound started at 1000 nM as an initial concentration and was diluted by 2 times with serial dilution to 0.03 nM. The GI50 value of each compound was calculated according to Test Example 1.3.

[6] = Table 13, 72 h, read-out: Range of GI50 A549 (EGFR WT)
[7] = Table 15, 1000 nM to 0.03 nM serial dilution, read-out: GI50 A549 (EGFR WT)
[8] = Table 13, 72 h, read-out: Range of GI50 PC-9 (EGFR dE746-A750)
[9] = Table 15, 1000 nM to 0.03 nM serial dilution, read-out: GI50 PC-9 (EGFR dE746-A750)
[10] = Table 13, 72 h, read-out: Range of GI50 H1975 (EGFR L858R/T790M)
[11] = Table 15, 1000 nM to 0.03 nM serial dilution, read-out: GI50 H1975 (EGFR L858R/T790M)
[12] = Table 13, 72 h, read-out: Range of GI50 N87 (HER2 Amp)
[13] = Table 16, 1000 nM to 0.03 nM serial dilution, read-out: GI50 N87 (HER2 amp)

GI50 (H292 (EGFR WT)) [nM]	GI50 (A549 (EGFR WT); [6]) [nM]	GI50 (A549 (EGFR WT); [7]) [nM]	GI50 [5] [nM]	GI50 (PC-9 (EGFR dE746-A750); [8]) [nM]	GI50 (PC-9 (EGFR dE746-A750); [9]) [nM]	GI50 (H1975 (EGFR L858R/T790M); [10]) [nM]	GI50 (H1975 (EGFR L858R/T790M); [11]) [nM]	SMILES	GI50 (N87 (HER2 Amp); [12]) [nM]	GI50 (N87 (HER2 Amp); [13]) [nM]	further results
								C=CC(=O)Nc1cc(Nc2cc(-c3cn(C)c4ccccc34)ncn2)c(OC)cc1N1CCC(N2CCN(C)CC2)CC1 [Compound 176, N-(4-methoxyl-5-(6-(1-methyl-1H-indol-3-yl)-pyrimidin-4-ylamino)-2-(4-(4-methylpiperazin-1-yl)-piperidin-1-yl)-phenyl)-acrylamide]			GI50 (AU565 (Her2 amp)): 100 to 1000 nM; GI50 [1]: > 1000 nM; GI50 [2]: > 1000 nM; GI50 [3]: 100 to 1000 nM; GI50 (A549 (EGFR WT); EGFR wild type cell line, range of GI50, read-out: GI50 A549): > 1000 nM; GI50 (SK-BR-3 (Her2 amp)): 10 to 100 nM; inhibition in vivo at 25 mg/kg (PC-9 tumor cells): 98.6%; inhibition in vivo at 25 mg/kg (H1975 tumor cells): 98.2%; GI50 (PC-9 (EGFR dE746-A750); EGFR mutant cell line, range of GI50, read-out: GI50 PC-9): < 10 nM; GI50 (HCC827 (EGFR dE746-A750)): < 10 nM; GI50 (H1975 (EGFR L858R/T790M); EGFR mutant cell line, range of GI50, read-out: GI50 H1975): 10 to 100 nM; GI50 [4]: 10 to 100 nM; GI50 (N87 (HER2 Amp); HER2 positive cell line, range of GI50, read-out: GI50 N87): 10 to 100 nM
> 1000	> 1000	> 1000	31.5	< 10	7.89	10 to 100	19.6	C=CC(=O)Nc1cc(Nc2nccc(-n3ccc4c(OC)cc(Br)cc43)n2)c(OC)cc1N(C)CCN(C)C [Compound 211, N-(5-(4-(4-methoxyl-6-bromo-1H-indol-1-yl)-pyrimidin-2-ylamino)-2-(2-(dimethylamino-ethyl)-methyl-amino)-4-methoxyl-phenyl)-acrylamide]	< 10	6.76	
> 1000	> 1000	> 1000	15.6	< 10	6.82	< 10	8.56	C=CC(=O)Nc1cc(Nc2nccc(-n3ccc4c(OC)cc(F)cc43)n2)c(OC)cc1N(C)CCN(C)C [Compound 212, N-(5-(4-(4-methoxyl-6-fluoro-1H-indol-1-yl)-pyrimidin-2-ylamino)-2-(2-(dimethylamino-ethyl)-methyl-amino)-4-methoxyl-phenyl)-acrylamide]	< 10	2.67	
> 1000	> 1000	> 1000	15.6	< 10	7.83	< 10	9.8	C=CC(=O)Nc1cc(Nc2nccc(-n3ccc4c(OC)cc(Cl)cc43)n2)c(OC)cc1N(C)CCN(C)C [Compound 213]	< 10	1.95	
